Test results taken from US10758607B2, “Respiratory syncytial virus having cleavage-resistant G protein and related materials and methods” (The Research Institute at Nationwide Children's Hospital, priority 2015, dated 2020).
Entries after “also recorded” stand apart in the source; their conditions may differ. Where a SMILES comes first, the peptide text is derived from it. The star is where a group is joined. Cbz = O=C(OCc1ccccc1)*; CHN2 = [N-]=[N+]=C*; tBu = CC(C)(C)*

How the values were obtained:
[1] = test system: RSV G protein cleavage in Vero cells; assay: Cell-surface RSV G protein cleavage in rgRSV-infected cells treated with protease inhibitors (biotinylation, immunoblot with mAb L9); format: cell-based; settings: RSV-infected HeLa and Vero cells; 0.1 to 100 μM at 6 hpi; 24 hpi
Method: To elucidate the class of protease responsible for G protein cleavage in Vero cells, cells were treated with increasing concentrations of protease inhibitors after inoculating with recombinant green fluorescent protein expressing RSV (rgRSV). Cells were incubated with rgRSV for 2 h with tipping at 37° C. before replacing inoculum with fresh cell culture medium. Drugs were added at different times post infection. In each case, uninfected, no drug, and vehicle (at the highest concentration used) were included in all experiments as controls. In all experiments at 24 hpi, cell surface proteins were biotinylated, cells lysed and equivalent amounts of protein from each sample were mixed with streptavidin beads.
Aprotinin, a serine protease inhibitor, leupeptin, a serine/cysteine protease inhibitor; or E-64, a cysteine protease inhibitor were added to the cell culture media (3.125 to 50 μg/ml) from 2-24 hpi. The most likely proteins to be incorporated into the virions are cell surface proteins, so the cell surfaced was biotinylated, proteins isolated from lysed cells with streptavidin beads, and immunobloted with L9, a mAb to the G protein, as a probe (FIG. 1A). In the untreated and vehicle treated samples most of the cell surface G protein was cleaved (˜55 kDa), leaving only a small portion of full length (˜90 kDa) G protein. […] Since both leupeptin and E64 block the activity of cysteine proteases, the protease responsible for cleavage of the G protein in Vero cells is a cysteine protease.
To narrow the field of cysteine proteases, cells were treated at 6 hpi with a more specific cysteine protease inhibitor, ALLM (0.1 to 100 μM).
RSV-infected HeLa and Vero cells were treated with a cathepsin B inhibitor, CA-074 (0.1 to 100 μM), or a cathepsin L inhibitor, cathepsin L inhibitor III (0.1 to 100 μM) 6 hpi.
Cathepsin L is a protease present primarily in the interior of the lysosome and is optimally active at acidic pH. Vero cells expressing the G protein were treated with chloroquine to raise the pH of the lysosome. […] To generate FIG. 4C, cells were inoculated with RSV or mock inoculated. 6 hpi the cells were treated with increasing concentrations of chloroquine. 24 hpi cells were biotinylated and G protein assayed
HeLa and Vero cells were rgRSV (MOI: 1) or mock inoculated. 2 hpi the inoculum was replaced with fresh complete medium, and 4 hpi cells the medium was changed again to complete medium with 2-fold dilutions of these protease inhibitors (Sigma-Aldrich, St. Louis, Mo.), dissolved in water: Aprotinin (3.125 to 50 μg/ml); Leupeptin (6.25 to 100 μg/ml); E-64 (6.25 to 100 μg/ml); or equal volumes of water in medium. In other experiments, cells were treated at 6 hpi with: 10-fold dilutions (0.1 to 100 μM) of: Cathepsin inhibitor I (Calbiochem); ALLM (Santa Cruz, Dallas, Tex.); Chloroquine diphosphate salt (Sigma Aldrich) or equivalent volumes of vehicle (water); CA-074 (Calbiochem); Cathepsin L inhibitor III (Calbiochem); or an equal volume of vehicle (DMSO) in medium.
At 24 hpi cells were biotinylated with Ez-link Sulfo-NHS-LC-Biotin (Thermo Fisher). Cells were lysed with lysis buffer containing 150 mM NaCl, 1% Triton X-100, 50 mM Tris, 0.1% SDS, and 1× Halt protease cocktail inhibitor (Thermo Fisher). Proteins were quantified using BCA protein assay kit (Pierce, Waltham, Mass.), and equal amounts of protein were added to high capacity streptavidin agarose beads (Thermo Fisher). The mixtures were rotated for 1 h at 4° C., the beads were pelleted and washed with lysis buffer (without protease cocktail inhibitor), NuPage LDS sample buffer was added, and boiled for 5 min, separated by NuPAGE Novex 4-12% bis-tris protein gels and transferred to nitrocellulose in an iBlot transfer stack, using the iBlot transferring system (Life Technologies) for immunoblot analysis. […]

[2] = test system: G protein from Vero cell virions; assay: Virion-associated G protein of rgRSV grown in Vero cells with cathepsin L inhibitor (immunoblot); format: cell-based; settings: for virion-associated G protein cleavage: rgRSV grown in Vero cells, 0.5 μM inhibitor at 7 hpi, harvested 72 hpi
Method: To verify that cathepsin L is sufficient to cleave the G protein, rgRSV was grown in Vero cells in the presence of cathepsin L inhibitor or vehicle. Viruses were harvested and pelleted through a 35% sucrose cushion to separate them from cathepsin L inhibitor. Viruses were resuspended in buffer with pH5.5 and treated with cathepsin L or vehicle. […] Vero cells were inoculated with rgRSV or mock inoculated for 2 h, at which time the inoculum was replaced with fresh medium. Vero cells were treated with medium containing 0.5 μM cathepsin L inhibitor III at 7 hpi. 72 hpi the medium was harvested and virus was pelleted through a 35% sucrose cushion. The pelleted Vero-derived (VeD) virus was resuspended in buffer (pH5.5) containing 50 ng/d cathepsin L or vehicle.
(§1) At 72 hpi the medium was collected and virus pelleted through a 35% sucrose cushion to partially purify and concentrate it. The virus pellet was resuspended and half was further purified by linear sucrose density gradient. The G protein from these purified virions was analyzed by immunoblot. The G protein from HeLa cell virions migrated at 90 kDa and was not affected by the inhibitor (FIG. 5A). […] FIG. 5A was generated by inoculating HeLa or Vero cells for 2 h and treating them with cathepsin L inhibitor or DMSO beginning at 8 hpi.
The effect of protease inhibitors on the infectivity of RSV produced by Vero and HeLa cells was tested by inoculating cells and 2 hpi media was changed. At 7 hpi medium containing […] cathepsin L inhibitor III (Calbiochem, San Diego, Calif.) or an equal volume of the vehicle, DMSO was added to the cells. […] Fractions containing virus were separated by SDS-PAGE and G protein detected by immunoblot using a mAb, L9 (Edward Walsh, University of Rochester).

[3] = test system: G protein from HeLa cell virions; assay: Virion-associated G protein of rgRSV grown in HeLa cells with cathepsin L inhibitor (immunoblot); format: cell-based; settings: inhibitor beginning at 8 hpi; virus collected 72 hpi; G migrated at 90 kDa
Method: as §1
The effect of protease inhibitors on the infectivity of RSV produced by Vero and HeLa cells was tested by inoculating cells and 2 hpi media was changed. At 7 hpi medium containing […] cathepsin L inhibitor III (Calbiochem, San Diego, Calif.) or an equal volume of the vehicle, DMSO was added to the cells. 72 hpi virus was harvested as described above, but instead of aliquoting and snap freezing, 15 ml of virus-containing medium was layered on top of 15 ml of 35% sucrose cushion in 1× Hanks Balanced Salt Solution, with calcium and magnesium, and centrifuged overnight at 4° C. and 26,000×g in an F14-14×50cy rotor for Sorvall Lynx 6000 (Thermo Fisher) to remove the drug and partially purify the virus. […] Fractions containing virus were separated by SDS-PAGE and G protein detected by immunoblot using a mAb, L9 (Edward Walsh, University of Rochester).

HAE cultures = assay: Infection of HAE cultures by rgRSV produced in the presence of cathepsin L inhibitor; format: cell-based, human
Method: as §1
The remaining virus that had been partially purified through the 35% sucrose cushion was titrated on HeLa cells. Equivalent amounts of infectious virus, determined on HeLa cells, were used to inoculate HAE cultures. […] For FIG. 5B, equivalent amount of infectious virus, determined by titration on HeLa cells, was used to inoculate HAE cultures. 48 hpi green cells were counted. *p<0.0001 (unpaired, 2-tailed t-test).
Primary, well-differentiated human airway epithelial (HAE) cultures were generated from human airway tissue (Fulcher et al., Methods Mol Med (2005) 107:183-206). For infection experiments they were grown on collagen coated Trans-well inserts (Corning Incorporated). […]
The effect of protease inhibitors on the infectivity of RSV produced by Vero and HeLa cells was tested by inoculating cells and 2 hpi media was changed. […] Fractions containing virus were separated by SDS-PAGE and G protein detected by immunoblot using a mAb, L9 (Edward Walsh, University of Rochester).
The apical surface of well-differentiated HAE cultures in Trans-wells was washed with DPBS for 2 h and the basal medium changed before equivalent pfu (titrated in HeLa cells), between 2,000 and 10,000 pfu, depending on the HAE culture source, were diluted in HAE medium and added to the apical chamber of the Trans-well. […] Fluorescent (green) cells were visualized with an EVOS fl inverted fluorescence microscope (Life Technologies) and counted in HeLa cultures at 24 hpi and on HAE cultures at 48 hpi. Three or more experiments were pooled and analyzed together.

Structure (SMILES): CC(C)(C)Oc1ccc(C[C@H](NC(=O)[C@H](Cc2ccccc2)NC(=O)OCc2ccccc2)C(=O)C=[N+]=[N-])cc1 [cathepsin L inhibitor III] (Cbz-Phe-Tyr(tBu)-CHN2)
- G protein cleavage (cell surface G protein) [1]: prevention of cleavage; also recorded: almost completely prevented G protein cleavage
- migration of G protein from Vero cell virions ([2]; inhibitor beginning at 8 hpi, virus collected 72 hpi, without inhibitor primarily 55 kDa): converted to 90 kDa
- virion-associated G protein cleavage [2]: cleavage is prevented
- virion-associated G protein cleavage ([2]; listed as cathepsin L inhibitor): cleavage prevention
- migration of G protein from HeLa cell virions [3]: not affected
- ability of Vero-derived virus to infect HAE cells (HAE cultures; inhibitor present during viral production): increasing the ability of Vero-derived virus to infect HAE cells
- effect on ability of HeLa grown virus to infect HAE cultures (HAE cultures; inhibitor present during virus production in HeLa, green cells counted 48 hpi): little, if any, effect
- increase in ability of Vero-grown virus to infect HAE cells (HAE cultures; inhibitor present during virus production in Vero, green cells counted 48 hpi, vs DMSO): 7 fold
